Results published in US6359006B2, “Amphiphilic fluorine derivatives with telomeric structures; preparation procedure and biomedical applications” (Alliance Pharmaceutical Corp., priority 1990, dated 2002).

Assay: Solubility
Type: physicochemical

- solubility in organic solvents (in words) (organic solvents such as AcOEt, CH3CN, CH3OH, CHCl3): soluble in organic solvents
- solubility in water (in words) (water): insoluble in water
SMILES: O=C(CCSCCC(F)(F)C(F)(F)C(F)(F)C(F)(F)C(F)(F)C(F)(F)F)NC(CO)(CO)CO [monoadduct 14, N-[(trihydrozymethyl)methyl]4-thia-6-(n-perfluorohezyl) hexanamide]
